# Where two headings read alike, the source gives them in different places.
# Experiments:
# Male NIH Swiss mice = test: Maximum Electro Shock (MES) Seizure Test; assay type: in vivo
# Method: This test is to determine the extent of protection by a test compound in a seizure model. This model is described by Rogawski et al. (Epilepsy Research, 15:179-184, 1993). Male NIH Swiss mice (25-30 g) were injected ip with the test drug. […] Animals failing to show tonic hind limb extension were scored as protected. Compounds may be selected which are active in this model.
# The results of this assay using compounds prepared as described in Examples 49, 50 and 102 are shown below in Table 2.
# Mice = test: Subcutaneous Metrazol (scMET) Seizure Test; assay type: in vivo; conditions: dose 3 mg/kg; time 0.5 hr; Metrazol 90 mg/kg sc
# Method: This test is to determine the extent of protection by a test compound in a seizure model. The method used is that of Chen et al. (Proc. Soc. Exp. Biol. Med., 87:334, 1954). Mice are randomly assigned to vehicle or treatment groups of 3-10 animals per group and then dosed accordingly. Metrazol (pentylenetetrazol) 90 mg/kg is administered subcutaneously (sc) at different time points (0.25, 0.5, 1, 2, 4 hr) after the treatment or control groups. The mice individually housed in clear runs and observed for the presence or absence of clonic seizure activity (>5 s duration) for 30 min after metrazol dosing. A compound is considered active if no seizure is observed. Data is analyzed using aquantal measure (protection/number tested).
# The results of this assay using compounds prepared as described in Examples 49 and 50 are shown below in Table 3.
# rat [1] = conditions: compared with NBQX; cited from earlier work
# rat [2] = conditions: cited from earlier work
smiles,measurement,setting,value
"Nc1ccc(-c2nncc3cc4c(cc23)OCO4)cc1 [Example 49, 1-(4-Aminophenyl)-6,7-methylendioxyphthalazine]",MES Score (protected/no. tested),"Male NIH Swiss mice; dose 3 mg/kg ip, time 0.5 hours",1/1
same,MES Score (protected/no. tested),"Male NIH Swiss mice; dose 15 mg/kg ip, time 2 hours",2/4
same,scMET Score (protect./no. tested),Mice,1/5
"Cc1nnc(-c2ccc(N)cc2)c2cc3c(cc12)OCO3 [Example 50, 4-(4-Aminophenyl)-1-methyl-6,7-methylenedioxyphthalazine]",MES Score (protected/no. tested),"Male NIH Swiss mice; dose 1 mg/kg ip, time 4 hours",1/7
same,scMET Score (protect./no. tested),Mice,1/5
"CC(=O)Nc1ccc(-c2nnc(C)c3cc4c(cc23)OCO4)cc1 [Example 102, 4-(4-acetylaminophenyl)-1-methyl-6,7-methylenedioxyphthalazine]",MES Score (protected/no. tested),"Male NIH Swiss mice; dose 100 mg/kg ip, time 4 hours",3/3
CC1=NN=C(c2ccc(N)cc2)c2cc3c(cc2C1)OCO3 [GYKI 52466],efficacy in global ischemia model,rat [1],as effective as the glutamate site competitive antagonist NBQX
same,reduction of cortical infarct volume,rat [2]; given continuously for 2 hours just after occlusion,68%
same,reduction of cortical infarct volume,rat [2]; given one hour after occlusion,48%

# Source: patent US6048853A, “1-arylphthalazine antagonists of excitatory amino acid receptors” (Bearsden Bio, Inc., priority 1996, dated 2000)
